From patent EP0545805A1, “Use of D-fenfluramine and fenfluramine derivatives in the treatment of hypertension in insulin-resistant patients” (ADIR ET COMPAGNIE, priority 1991, dated 1993)

Legend:
rat âgé = test: Chronic treatment of the aged rat (insulin resistance, hyperinsulinaemia, raised blood pressure): blood pressure; format: in vivo
Description: 2- Etude du traitement chronique du rat âgé
Au cours du vieillissement, une insulino-résistance apparaît, accompagnée d'une hyperinsulinémie et d'une élévation de la pression artérielle (cf tableau 1 ci-après).
Le traitement par la d-fenfluramine à la dose de 2,5 mg/kg 2 fois par jour pendant 3 semaines, diminue la pression artérielle du rat âgé de 12.10² Pa sans modifier celle du rat jeune.

[1] = from cited literature (Storlien et al., Brindley et al., Carr et al., Duhault et al., Pestell et al.); cited from earlier work
réactivité vasculaire = test: Vascular reactivity after chronic treatment of the aged rat: maximum contraction to serotonin and ADP; format: in vivo; details: 12-month rats treated with d-fenfluramine
Description: Cet effet est relié à une normalisation de la réactivité vasculaire, en particulier à la sérotonine et à l'ADP (cf tableau 2 ci-après).

CC(Cc1cccc(C(F)(F)F)c1)NCCOC(=O)c1ccccc1 (centres unmarked) [benfluorex]
Blood pressure and vascular reactivity of the aged rat (results compared with d-fenfluramine) (rat âgé; 50 mg/kg, 5 times per day): résultats analogues

CCNC(C)Cc1cccc(C(F)(F)F)c1 (racemic) [dl fenfluramine]
insulino-résistance et hyperinsulinémie basale [1]: capables de réduire l'insulino-résistance et l'hyperinsulinémie basale

CCN[C@@H](C)Cc1cccc(C(F)(F)F)c1 [d-fenfluramine]
Maximum de contraction Sérotonine (réactivité vasculaire; expressed relative to KCl = 100 % contraction): 145%
Maximum de contraction ADP (réactivité vasculaire; expressed relative to phenylephrine = 100 % contraction): 66%
pression artérielle du rat jeune (rat âgé; young rat, 2,5 mg/kg twice daily for 3 weeks): sans modifier
